Entries after “also recorded” stand apart in the source; their conditions may differ.
What was measured:
[1] = Cellular toxicity assay, Huh-7 cells; format: cell-based; conditions: human, compared to cycloheximide (+ control)
Method: The toxicity of the compounds was assessed in human PBM, CEM (human lymphoblastoid), and Huh-7 cells, as described previously (see Schinazi R. F., Sommadossi J.-P., Saalmann V., Cannon D. L., Xie M.-Y., Hart G. C., Smith G. A. & Hahn E. F. Antimicrob. Agents Chemother. 1990, 34, 1061-67). Cycloheximide was included as positive cytotoxic control, and untreated cells exposed to solvent were included as negative controls. The cytotoxicity IC50 was obtained from the concentration-response curve using the median effective method described previously (see Chou T.-C. & Talalay P. Adv. Enzyme Regul. 1984, 22, 27-55; Belen'kii M. S. & Schinazi R. F. Antiviral Res. 1994, 25, 1-11).

[2] = tested on: miR-122; assay: Expression and secretion of RORα-regulated microRNA in Huh-7 cells (qRT-PCR); format: cell-based, human
Method: Secreted microRNA levels in the medium of Huh-7 cells were analyzed by qRT-PCR and were normalized to spiked C. elegans miR-39. miR-18 and miR-93 served as controls for secreted microRNA and were not affected following Compound 1 addition.
RNA extraction and quantitative Real-Time PCR analysis. Total RNA, including small RNAs, were isolated from […] of plasma or culture media samples using the miRNeasy Mini kit (Qiagen, Valencia, CA, USA) with 2 minor modifications. First, 200 μl of plasma or culture media were lysed with 1 ml of Qiazol solution. Second, a 50 pmol/1 of synthesized single strand Caenorhabditis elegans miRNA (cel-miR-39) was added as the spike-in control to monitor extraction efficiency. The remainder of the RNA extraction was performed according to the manufacturer's instructions. miRNAs were eluted with 30 μl of RNase-free water. Total RNA, including miRNAs, from cells or tissues were isolated using TRIzol reagent (Invitrogen, Carlsbad, CA, USA). cDNA was synthesized using the Quanta Biosciences qScript™ cDNA Synthesis Kit (95047-100) for mRNA analysis, and using the qScript™ microRNA cDNA Synthesis Kit (95107-100) for miRNAs analysis. qRT-PCR of miRNAs and mRNA was performed using the ABI 7900 HT Real-Time PCR System and a SYBR Green PCR Kit: Quanta Cat. #84018 and #84071 respectively. The fold expression and statistical significance were calculated using the 2-ΔΔ Ct method. All experiments were performed in triplicates.

[3] = tested on: Huh7 cells; assay: LDH release from Huh7 cells; format: cell-based, human; conditions: Huh7, 16 h exposure
[4] = tested on: CD4^+ Th17 cells; assay: Modulation of Th17 populations in human PBMCs (flow cytometry); format: cell-based; conditions: 10 μM, 3 day assay
Method: Human peripheral blood mononuclear cells (PBMCs) were isolated from four healthy donors. Four experiments were conducted and analyzed by flow cytometry over 3 day assay. The control group had no drug treatment, a second were treated with 10 μM Compound 1, a third group was stimulated with PHA/IL-2 without treatment, and the fourth group was stimulated with PHA/IL-2 and incubated with 10 μM Compound 1. […] Further, Compound 1 has no effect on Th17 populations in the absence of PHA/IL-2 stimulation.

[5] = tested on: high-fat-fed C57BL/6 mice; assay: High-fat-diet-fed C57BL/6 mice treated with Compound 1 and/or antagomiR-122; format: in vivo
Method: C57BL/6 mice were fed a 50% high fat diet (HFD) for four weeks. The control cohort received three hydrodynamic tail vein injections of a 5 μg antagomiR-control and six i.p injections of saline over three weeks. A second cohort was hydrodynamic tail vein injected with 5 μg antagomiR-122 (the reverse complement that inhibits activity of miR-122) three times and i.p injections of saline six times over three weeks. A third cohort was injected i.p. with Compound 1 (7.5 mg/kg) twice a week plus antagomiR-control once a week over the course of 3 weeks. The final cohort was injected i.p. with Compound 1 (7.5 mg/kg) twice a week plus antagomiR-122 injections once a week over the course of 3 weeks.
Male C57BL/6J mice, 7 to 8 weeks old, were housed randomly in standard cages and were fed a HFD, or atherogenic diet (consisting 1% Chol and 0.5% cholic acid, see also Table 6). All mice had free access to water during the experimental period. During the feeding period body weight was monitored every 3 days. In the HFD experiment, after 4 or 6 weeks, the resultant obese mice were treated with antagomiR-122 (5 μg/mouse once a week for 3 weeks), or i.p. injected with Compound 1 (RORα agonist, 7.5 mg/kg twice a week for 3 weeks; or 15 mg/kg 3 times a week for 3 weeks). The obese control (HFD) group was administered only saline with DMSO and antagomiR-control. After 3 weeks of treatment mice were sacrificed and livers were taken for RNA-seq analysis. Livers, white adipose, and skeletal muscle tissues were frozen in liquid nitrogen or in optimum cutting temperature embedded frozen blocks, for further RNA and histologic analysis. In the atherogenic diet experiment mice were treated with 15 mg/kg Compound 1 after 3 weeks with the diet. After 3.5 weeks of treatment, mice were sacrificed, and the livers were frozen in liquid nitrogen or in optimum cutting temperature embedded frozen blocks. Plasma was collected from atherogenic diet-fed mice and saved in −20° C. for ALT and AST analysis using the Reflotron® Analyzer and test-strips (Roche).
In the HFD experiment, after 4 or 6 weeks, the resultant obese mice were treated with antagoMIR122 (5 μg/mouse once a week for 3 weeks), or i.p. injected with Compound 1 (RORα agonist, 7.5 mg/kg twice a week for 3 weeks; or 15 mg/kg 3 times a week for 3 weeks). The obese control (HFD) group was administered only saline with DMSO and antagomiR-control.
Mice were fed with a 50% HFD and after 4 weeks, when fatty liver was already established, they were treated with Compound 1, antagoMIR122 or both compounds together for an additional 3 weeks. […] The weighing of mice began at week 3, one week before treatments were initiated. […] The liver weight of the mice was in accordance with their body weight.

[6] = Plasma half-life; format: in vivo, mice; conditions: mouse, read-out: plasma t1/2 (converted)

SMILES: O=C1Nc2cc(C(=O)N3CCC(Cc4ccccc4)CC3)ccc2Nc2ccccc21 [Compound 1]
- CC50 [1]: 10.4 µM
- Secreted control microRNA (miR-18, miR-93) in Huh-7 medium ([2]; 1 μM, 24 hours): not affected
- Secreted miR-122 level in Huh-7 medium ([2]; 1 μM, 24 hours): increases secretion of miR-122
- Cellular miR-122 levels ([2]; Huh7, 16 h exposure): did not change
- miR-122 secreted to the medium ([2]; Huh7, 16 h exposure): significant miR-122 was secreted to the medium; also recorded: significant amount of MIR122 was secreted to the medium
- Toxicity to the cells as measured by LDH release [3]: no apparent toxicity
- Th17 total population in the presence of PHA/IL-2 stimulation ([4]; relative to vehicle-control): decreases the CD4^+ Th17 population
- Total viability of CD4^+ T cells ([4]; with or without PHA/IL-2): no effect
- Hepatic lipid droplets and TG content ([5]; 50% HFD, 7.5 mg/kg twice a week, 3 weeks): reduced
- Body weight, Compound 1 co-administered with antagomiR-122 ([5]; 50% HFD, 3 weeks): returned exactly to that of control animals
- Dgat1 (MIR122 target gene) in the liver ([5]; 50% HFD, 3 weeks of treatment): reduced
- Energy expenditure (β-hydroxybutyrate plasma level as surrogate marker) ([5]; 50% HFD, 3 weeks of treatment): increases energy expenditure; also recorded: increase
- FGF21 (RORα target gene) in the liver ([5]; 50% HFD, 3 weeks of treatment): increased
- MIR122 levels in plasma and muscle (secretion) ([5]; 50% HFD, 3 weeks of treatment): enhanced; also recorded: increase of MIR122
- Mature MIR122 level in the liver ([5]; 50% HFD, 3 weeks of treatment): no increase
- Muscle TG levels ([5]; 50% HFD, 3 weeks of treatment): reduced
- pri- and pre-MIR122 in the liver ([5]; 50% HFD, 3 weeks of treatment): increased significantly
- Body weight ([5]; 50% HFD, Compound 1 7.5 mg/kg i.p. twice a week, antagomiR once a week, 3 weeks, 7.5 mg/kg): weight steadily decreased; also recorded: reduces body weight; also recorded: significant decrease in body weight
- Hepatic RORα level ([5]; HFD-fed mice): increased the RORα level to its level in mice fed normal diet
- half-life [6]: 2.7 h
